In patent publication US11679107B2 (Eisai R&D Management Co., Ltd., priority 2018, dated 2023):
Read-outs that look alike come from different tables or passages of the source.

What was measured:
[1] = system: NCI-H1568 cells (high MCL1); assay: Cell proliferation and viability, CellTiter-Glo, 72 hours; type: cell-based; details: for GI50: geometric mean
Procedure, shortened: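 Cells grown in RPMI-1640 with 10% FBS (Panc line with added insulin and FBS to 15%) were exposed to an 11-point half-log dilution series, typically 10 μM-100 pM, at 0.1% final DMSO. After incubation at 37° C, 5% CO2, ATP content was measured by luminescence and normalized to a time-zero plate and DMSO wells.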

SF3b complexes = molecular target: T1, SF3b complexes (Homo sapiens, UniProt O75533+Q7RTV0); assay: Scintillation proximity assay (SPA) with [3H]-labelled pladienolide probe; type: binding; details: SF3B1 (WT); geometric mean; read-out: SPA-ATS GMean IC50 (nM) SF3B1 (WT)
T1 construct: endogenous in cells; host or cells: Nuclear extracts; A HeLa S3 extract preparation is described for the in vitro splicing assay
Procedure, shortened: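 SF3b complexes captured from nuclear extracts on anti-SF3B1 antibody SPA beads; test compounds pre-incubated 30 min before 2.5 nM [3H]-pladienolide probe added, then 30 min incubation. Bound probe read by scintillation; values from non-linear regression of concentration–response curves.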

[2] = system: Ad2 variant pre-mRNAs spliced in HeLa S3 nuclear extracts; assay: In vitro splicing assay (IVS), RT-qPCR of spliced product; type: biochemical; details: for IC50: geometric mean; for Ratio Ad2.1/2.2: ratio of IVS IC50 Ad2.1 to Ad2.2
Procedure, shortened: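 Ad2 variant pre-mRNA (2 ng) with FTZΔi control RNA in HeLa S3 nuclear extract (8 μg) was pre-incubated with compound or DMSO for 15 min at 30 °C. Splicing ran 90 min at 30 °C after adding 0.5 mM ATP, creatine phosphate and MgCl2. Spliced product was quantified by TaqMan RT-qPCR, normalized to DMSO, and curve-fitted.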

[3] = NCI-H1568, read-out: CTGlo-ATS GMean GI50 (nM) 72 h NCIH1568.1, NCIH1568.1 cells, 72 h
[4] = NCIH1568.1 cells, 72 h, −100% cidal, 0% static, 100% maximal growth
[5] = Ad2.1 pre-mRNA substrate, read-out: qPCR-IVS-ATS GMean IC50 (nM) Ad2.1
[6] = Ad2.2 pre-mRNA substrate, read-out: qPCR-IVS-ATS GMean IC50 (nM) Ad2.2
[7] = 72 h, NCIH1568.1, -100% = cidal, 0% = static, 100% = uninhibited growth
[8] = NCI-H1568, read-out: CTGlo-ATS GMean GI50 (nM) 72 h NCIH1568.1, 72 h, NCIH1568.1
[9] = NCI-H1568, 72 h, read-out: CTGlo-ATS GMean GI50 (nM) 72 h NCIH1568.1, 72 h, NCIH1568.1

Row | Structure (SMILES) | GI50 [1, 3] | CTGlo-ATS Mean MinResponse % 72 h NCIH1568.1 [1, 4] | IC50 (SF3b complexes) | IC50 [2, 5] | IC50 [2, 6] | GI50 ([1]; NCI-H1568, 72 h, read-out: CTGlo-ATS GMean GI50 (nM) 72 h NCIH1568.1, NCIH1568.1 cells, 72 h) | CTGlo-ATS Mean MinResponse % 72 h NCIH1568.1 [1, 7] | GI50 [1, 8] | Ratio Ad2.1/2.2 [2] | GI50 [1, 9]
1 | C/C(=C\c1cc(F)cc(N(C)C2CCN(C(=O)NC(C)C)CC2)c1)[C@H]1OC(=O)C[C@H](O)CC[C@H](C)[C@@H](OC(=O)N2CCN(C)CC2)/C=C/[C@@H]1C [Compound 191] | 6.33 nM | −83.895% | 3.47 nM | 11.6 nM | 7.47 nM |  |  |  |  | 
2 | CCCNC(=O)N1CCC(N(C)c2cc(F)cc(/C=C(\C)[C@H]3OC(=O)C[C@H](O)CC[C@H](C)[C@@H](OC(=O)N4CCN(C)CC4)/C=C/[C@@H]3C)c2)CC1 [Compound 192] |  | −75.900% | 3.85 nM | 14.1 nM | 10.3 nM | 7.49 nM |  |  |  | 
3 | C/C(=C\c1cc(F)cc(N(C)C2CCN(C(=O)Nc3ccccc3)CC2)c1)[C@H]1OC(=O)C[C@H](O)CC[C@H](C)[C@@H](OC(=O)N2CCN(C)CC2)/C=C/[C@@H]1C [Compound 193] | 17.2 nM | −89.438% | 127 nM | 47.8 nM | 19.6 nM |  |  |  |  | 
4 | C/C(=C\c1cc(F)cc(OC2CCN(S(C)(=O)=O)CC2)c1)[C@H]1OC(=O)C[C@H](O)CC[C@H](C)[C@@H](OC(=O)N2CCN(C)CC2)/C=C/[C@@H]1C [Compound 194] | 6.73 nM | −75.631% | 10.7 nM | 30.1 nM | 25.9 nM |  |  |  |  | 
5 | C/C(=C\c1cc(F)c2cnn(C3CCC(F)(F)CC3)c2c1)[C@H]1OC(=O)C[C@H](O)CC[C@H](C)[C@@H](OC(=O)N2CCN(C)CC2)/C=C/[C@@H]1C [Compound 195] | 6.59 nM | −95.559% | 69.3 nM | 91.9 nM | 58.3 nM |  |  |  |  | 
6 | C/C(=C\c1cc(F)c2cnn(C3CCN(S(C)(=O)=O)CC3)c2c1)[C@H]1OC(=O)C[C@H](O)CC[C@H](C)[C@@H](OC(=O)N2CCN(C)CC2)/C=C/[C@@H]1C [Compound 196] |  |  | 13.2 nM | 30 nM | 19.6 nM |  | −90.418% | 1.83 nM | 1.529 | 
7 | C/C(=C\c1cc(F)cc(N2CCN(C(=O)Cn3cccn3)CC2)c1)[C@H]1OC(=O)C[C@H](O)CC[C@H](C)[C@@H](OC(=O)NCc2ccncc2)/C=C/[C@@H]1C [Compound 221, [(2S,3S,4E,6R,7S,10R)-2-[(E)-1-[3-fluoro-5-[4-(2-pyrazol-1-ylacetyl)piperazin-1-yl]phenyl]prop-1-en-2-yl]-10-hydroxy-3,7-dimethyl-12-oxo-1-oxacyclododec-4-en-6-yl] N-(pyridin-4-ylmethyl)carbamate] |  |  | 9.33 nM | 9.6 nM | 4.86 nM |  | −66.213% |  | 1.973 | 11.4 nM
8 | C/C(=C\c1cc(F)cc(N2CCN(C(=O)Cn3cccn3)CC2)c1)[C@H]1OC(=O)C[C@H](O)CC[C@H](C)[C@@H](OC(=O)NCc2ccncn2)/C=C/[C@@H]1C [Compound 222, [(2S,3S,4E,6R,7S,10R)-2-[(E)-1-[3-fluoro-5-[4-(2-pyrazol-1-ylacetyl)piperazin-1-yl]phenyl]prop-1-en-2-yl]-10-hydroxy-3,7-dimethyl-12-oxo-1-oxacyclododec-4-en-6-yl] N-(pyrimidin-4-ylmethyl)carbamate] |  |  | 23.6 nM | 116 nM | 53.2 nM |  | −58.410% |  | 2.179 | 69.4 nM
9 | C/C(=C\c1cc(F)cc(N2CCN(C(=O)Cn3cccn3)CC2)c1)[C@H]1OC(=O)C[C@H](O)CC[C@H](C)[C@@H](OC(=O)N2CCOCC2)/C=C/[C@@H]1C [Compound 223, [(2S,3S,4E,6R,7S,10R)-2-[(E)-1-[3-fluoro-5-[4-(2-pyrazol-1-ylacetyl)piperazin-1-yl]phenyl]prop-1-en-2-yl]-10-hydroxy-3,7-dimethyl-12-oxo-1-oxacyclododec-4-en-6-yl] morpholine-4-carboxylate] |  |  | 15.9 nM | 93.9 nM | 6.96 nM |  | −62.835% | 33.1 nM | 13.488 | 
